Measured values from ChEMBL document CHEMBL4371021, “BH3 mimetics derived from Bim-BH3 domain core region show PTP1B inhibitory activity” (Bioorg Med Chem Lett, 2019).
Residues, ends and D or L forms follow the SMILES beside them.

Molecular target: T1, Tyrosine-protein phosphatase non-receptor type 1 (Homo sapiens) (UniProt P18031)
T1 sequence (whole entry): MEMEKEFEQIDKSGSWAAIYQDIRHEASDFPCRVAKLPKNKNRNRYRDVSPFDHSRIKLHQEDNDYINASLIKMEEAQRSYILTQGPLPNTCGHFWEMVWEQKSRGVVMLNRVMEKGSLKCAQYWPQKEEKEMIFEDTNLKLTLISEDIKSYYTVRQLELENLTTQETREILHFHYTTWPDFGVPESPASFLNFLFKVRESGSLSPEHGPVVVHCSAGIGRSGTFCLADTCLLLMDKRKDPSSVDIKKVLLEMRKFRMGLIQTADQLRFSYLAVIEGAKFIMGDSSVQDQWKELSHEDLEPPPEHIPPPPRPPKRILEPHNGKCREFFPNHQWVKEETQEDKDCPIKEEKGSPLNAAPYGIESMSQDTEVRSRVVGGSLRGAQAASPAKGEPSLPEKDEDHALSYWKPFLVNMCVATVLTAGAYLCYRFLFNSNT
Assay: Inhibition of recombinant human N-terminal poly histidine-tagged PTP1B (Glu2 to Asn321 residues) expressed in Escherichia coli at 40 umol/L using pNPP as substrate measured for 4 mins relative to control

Row | Compound | inhibition [%]
1 | CC[C@H](C)[C@H](NC(=O)COCCOCCOCCOCCOC)C(=O)N[C@@H](C)C(=O)N[C@@H](CCC(N)=O)C(=O)N[C@@H](CCC(=O)O)C(=O)N[C@@H](CC(C)C)C(=O)N[C@@H](CCCNC(=N)N)C(=O)N[C@@H](CCCNC(=N)N)C(=O)N[C@H](C(=O)NCC(=O)N[C@@H](CC(=O)O)C(=O)N[C@@H](CCC(=O)O)C(=O)N[C@@H](Cc1ccccc1)C(N)=O)[C@@H](C)CC (HELM PEPTIDE1{[COCCOCCOCCOCCOCC(=O)[*:2]].I.A.Q.E.L.R.R.I.G.D.E.F.[am]}$$$$V2.0) | 4.25
2 | Ac-IAQELRRIGDEF-NH2 | 2.1
